Columns and labels:
[1] = test system: ABCA1 protein; assay: Western blot of ABCA1 protein in mouse peritoneal macrophages; type: cell-based; conditions: 24 h
Protocol: (§1) Protein extracts from macrophages were prepared by lysing the cells in modified radioimmunoprecipitation assay buffer (50 mM Tris, 150 mM NaCl, 1 mM EDTA. 1% Triton X-100) containing a protease inhibitor cocktail (Complete EDTA Free; Roche). Protein content in the extracts was determined by using the DC protein assay (Bio-Rad, Hercules, Calif.). Equal amounts of protein (40 to 50 μg) were separated by electrophoresis with 4 to 15% acrylamide gradient gels (Bio-Rad) and then transferred to nitrocellulose membrane (Trans-Blot Transfer Medium; Bio-Rad). Membranes were probed with anti-ABCA1 antibody (Novus Biologicals, Littleton, Colo.) and anti-β-actin antibody (Sigma) according to the manufacturer's recommendations. Immunoblots were developed by using a chemiluminescent detection system (Super Signal West Pico chemiluminescent substrate; Pierce, Rockford, Ill.).

[2] = test system: ABCA1, ABCG1, SREBP-1c, apoE, LXRα, Cyp26 mRNA; assay: Quantitative real-time PCR of LXR target genes and Cyp26 in human monocyte-derived macrophages; type: cell-based; conditions: human macrophages
Protocol: For quantification of mouse Cyp26 mRNA levels, each amplification mixture (25 μ) contained 62.5 ng of cDNA, 100 nM concentrations of reverse and forward primers, and 2.5 μl of 10× SYBR Green PCR master mix (Perkin-Elmer Life Sciences, Boston, Mass.). Quantitative expression values were extrapolated from standard curves for Cyp26 expression with 10-fold dilutions of cDNA (in triplicate). Each sample was normalized to β-actin that was deduced from TaqMan assays, triplicate results were averaged, and relative Cyp26 mRNA levels were determined. The primers mCyp26 F (5′-[…]-3′) and mCyp26 R (5′-[…]-3′) were used. RNA measurements from human monocyte-derived macrophages were performed as described previously (10, 44).

[3] = test system: SREBP-1c, FAS, ABCA1, Cyp26 mRNA in liver; assay: Gene expression in mouse liver after intraperitoneal injection; type: in vivo; conditions: mice, intraperitoneal 1 or 10 mg/kg, 24 h
Protocol: (A) RAR regulation of ABCA1 and SREBP-1c expression in mouse peritoneal macrophages. […] ABCA1 and SREBP-1c mRNA levels were determined by quantitative real-time reverse transcription-PCR and standardized against β-actin mRNA levels. The results are expressed as mean±the SEM (n=4 and 6). *, P<0.05; **, P<0.01 (compared to control). […] After 24 h, the mice were anesthetized, the livers were perfused, and the square lobes were removed for isolation of RNA. […] The results are expressed as mean±the SEM (n=5).
Total RNA was isolated from mouse peritoneal macrophages or ˜50 mg of mouse liver tissue by using the RNeasy Mini kit (Qiagen, Valencia, Calif.) or RNA-Bee reagent (Tel-Test, Inc., Friendswood, Tex.), respectively, according to the manufacturer's protocol. Real-time quantitative PCR assays were performed by using the Mx4000 Quantitative PCR System (Stratagene, La Jolla, Calif.). Briefly, 5 μg of total RNA was treated with RNase-free DNase I (Ambion, Austin, Tex.), and first-strand cDNA was synthesized with oligo(dT)12-18 by using a Superscript II RNase H^− reverse transcriptase reagent kit (Invitrogen) according to the manufacturer's protocol. For quantification of mouse ABCA1, ABCG1, SREBP-1c, LXRα, ApoE, and fatty acid synthase (FAS) mRNA levels, each amplification mixture contained 62.5 ng of cDNA, appropriate concentrations of forward and reverse primers and of dual-labeled fluorogenic probe (Biosearch Technologies, Novato, Calif.), and 12.5 μl of TaqMan Universal PCR master mix (Applied Biosystems, Foster City, Calif.). PCR thermocycling parameters were 50° C. for 2 min, 95° C. for 10 min, and 45 cycles of 95° C. for 15 s and 60° C. for 1 min. All samples were analyzed for β-actin expression in the same run. Quantitative expression values were extrapolated from standard curves for the gene of interest with 10-fold dilutions of cDNA (in triplicate). Each sample was normalized to β-actin, triplicates were averaged, and relative mRNA levels were determined. […]
For quantification of mouse Cyp26 mRNA levels, each amplification mixture (25 μ) contained 62.5 ng of cDNA, 100 nM concentrations of reverse and forward primers, and 2.5 μl of 10× SYBR Green PCR master mix (Perkin-Elmer Life Sciences, Boston, Mass.). Quantitative expression values were extrapolated from standard curves for Cyp26 expression with 10-fold dilutions of cDNA (in triplicate). Each sample was normalized to β-actin that was deduced from TaqMan assays, triplicate results were averaged, and relative Cyp26 mRNA levels were determined. […]

[4] = test system: ABCA1 protein; assay: Western blot of ABCA1 protein in RARγ−/− mouse peritoneal macrophages; type: cell-based; conditions: 5 μM, 24 h
Protocol: as §1

[5] = target: T1, FXR (Mus musculus, UniProt Q60641); conditions: cited from earlier work
T1 sequence (Q60641 1-488): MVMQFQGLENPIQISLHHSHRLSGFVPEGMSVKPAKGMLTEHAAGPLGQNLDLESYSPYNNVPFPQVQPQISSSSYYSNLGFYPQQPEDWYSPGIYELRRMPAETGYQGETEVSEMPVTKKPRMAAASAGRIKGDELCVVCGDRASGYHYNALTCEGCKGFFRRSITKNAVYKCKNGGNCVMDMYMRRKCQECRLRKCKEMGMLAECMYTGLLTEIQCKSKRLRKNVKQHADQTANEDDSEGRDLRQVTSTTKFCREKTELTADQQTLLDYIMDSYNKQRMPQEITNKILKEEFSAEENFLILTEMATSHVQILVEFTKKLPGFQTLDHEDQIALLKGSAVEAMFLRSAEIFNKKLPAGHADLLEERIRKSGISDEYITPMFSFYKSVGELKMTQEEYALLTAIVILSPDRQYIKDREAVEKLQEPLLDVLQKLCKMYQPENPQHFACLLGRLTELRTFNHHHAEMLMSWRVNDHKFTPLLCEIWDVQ

## C/C(=C\c1ccc(C(=O)O)cc1)c1ccc2c(c1)C(C)(C)CCC2(C)C [TTNPB, 4-[E-2-5,6.7.8-tetrahydro-5,5,8,8-tetramethyl-2-naphthalenyl-l-propenyl]benzoic acid]
[1]
  ABCA1 protein levels: accumulation of ABCA1 protein
[2]
  Cyp26 mRNA increase: ~6 fold
  induction of ABCA1 or other LXR target genes, compared with ATRA: much less effective than ATRA
[3]
  Cyp26 mRNA in liver: markedly induced
  FAS gene expression in liver: no response
  hepatic ABCA1 mRNA: not induced
  hepatic SREBP-1c mRNA: repressed
[4]
  ABCA1 protein induction: still induced
[5]
  FXR activation: activates FXR at relatively high concentrations

Source: patent publication US20060009520A1, “Retinoid-based methods for altering macrophage cholesterol” (priority 2004, published 2006)
